Experimental findings from patent US12065430B2, “Indazole compound or salt thereof” (TAIHO PHARMACEUTICAL CO., LTD., priority 2018, dated 2024) are described below.

The structures appear in SMILES notation.

Sequence of G12C K-Ras4B (1-169) (P01116 other isoform, or with tags, fused parts or gaps G12C): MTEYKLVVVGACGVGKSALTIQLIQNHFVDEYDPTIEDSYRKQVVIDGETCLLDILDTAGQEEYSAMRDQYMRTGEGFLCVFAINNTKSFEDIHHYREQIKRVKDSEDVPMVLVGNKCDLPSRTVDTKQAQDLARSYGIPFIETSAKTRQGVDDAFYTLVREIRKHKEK

The assay deals with G12C K-Ras4B (1-169) (Homo sapiens (Human), UniProt P01116, G12C). In words: Test of compounds on whether to bind to KRASG12C (LC-MS compound binding rate). Conditions: final compound concentration of 2 μM, 1 μM protein, 25° C. for 2 hours. The procedure, abridged:
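K-Ras4B (1-169) WT and G12C (1 μM each, mixed) in 1×TBS, 0.1 mM TCEP incubated with compound (final 2 μM) 2 h at 25° C; quenched with 0.2% formic acid. Intact-protein LC-MS (ESI+, deconvoluted); binding rate = adduct signal/(adduct + unbound signal), giving selectivity over WT.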
`Cc1nc(CNc2n[nH]c3cc(Cl)c(C(C)(C)C)cc23)n(C)c1C(=O)NC1CN(C(=O)/C=C/CN(C)C)C1` [Example 80, (E)-2-(((5-(tert-butyl)-6-chloro-1H-indazol-3-yl)amino)methyl)-N-(1-(4-(dimethylamino)but-2-enoyl)azetidin-3-yl)-1,4-dimethyl-1H-imidazole-5-carboxamide]: the “binding rate for G12C K-Ras4B (1-169)” value was “C (a binding rate of 40% or more and less than 60% is rated “C,”)”.
In the case of `C/C=C/C(=O)N1CC(NC(=O)c2c(C)nc(CNc3n[nH]c4cc(Cl)c(C(C)(C)C)cc34)n2C(C)C)C1` [Example 81, (E)-N-(1-(but-2-enoyl)azetidin-3-yl)-2-(((5-(tert-butyl)-6-chloro-1H-indazol-3-yl)amino)methyl)-1-isopropyl-4-methyl-1H-imidazole-5-carboxamide], the “binding rate for G12C K-Ras4B (1-169)” value was “E (a binding rate of less than 20% is rated “E.”)”.
The same measure for `CC#CC(=O)N1CC(NC(=O)c2c(C)nc(CNc3n[nH]c4cc(Cl)c(C(C)(C)C)cc34)n2C(C)C)C1` [Example 82, N-(1-(buty-2-noyl)azetidin-3-yl)-2-(((5-(tert-butyl)-6-chloro-1H-indazol-3-yl)amino)methyl)-1-isopropyl-4-methyl-1H-imidazole-5-carboxamide]: “D (a binding rate of 20% or more and less than 40% is rated “D,”)”; for `Cc1nc(CNc2n[nH]c3cc(Cl)c(C(C)(C)C)cc23)n(C(C)C)c1C(=O)NC1CN(C(=O)/C=C\Cl)C1` [Example 83, (Z)-2-(((5-(tert-butyl)-6-chloro-1H-indazol-3-yl)amino)methyl)-N-(1-(3-chloroacryloyl)azetidin-3-yl)-1-isopropyl-4-methyl-1H-imidazole-5-carboxamide]: “D (a binding rate of 20% or more and less than 40% is rated “D,”)”.
Take `CC(C)n1c(CNc2n[nH]c3cc(Cl)c(C(C)(C)C)cc23)nc(C(F)F)c1C(=O)NC1CN(C(=O)/C=C/CN(C)C)C1` [Example 84, (E)-2-(((5-(tert-butyl)-6-chloro-1H-indazol-3-yl)amino)methyl)-4-(difluoromethyl)-N-(1-(4-(dimethylamino)but-2-enoyl)azetidin-3-yl)-1-isopropyl-1H-imidazole-5-carboxamide]: the “binding rate for G12C K-Ras4B (1-169)” value is “C (a binding rate of 40% or more and less than 60% is rated “C,”)”.
The same measure for `COC/C=C/C(=O)N1CC(NC(=O)c2c(C)nc(CNc3n[nH]c4cc(Cl)c(C(C)(C)C)cc34)n2C(C)C)C1` [Example 85, (E)-2-(((5-(tert-butyl)-6-chloro-1H-indazol-3-yl)amino)methyl)-1-isopropyl-N-(1-(4-methoxybut-2-enoyl)azetidin-3-yl)-4-methyl-1H-imidazole-5-carboxamide]: “C (a binding rate of 40% or more and less than 60% is rated “C,”)”; for `C=CS(=O)(=O)N1CC(NC(=O)c2c(C)nc(CNc3n[nH]c4cc(Cl)c(C(C)(C)C)cc34)n2C(C)C)C1` [Example 86, 2-(((5-(tert-butyl)-6-chloro-1H-indazol-3-yl)amino)methyl)-1-isopropyl-4-methyl-N-(1-(vinylsulfonyl)azetidin-3-yl)-1H-imidazole-5-carboxamide]: “A (a binding rate of 80% or more is rated “A,”)”.
Consider `C=CC(=O)N1CC(NC(=O)c2c(Cl)nc(CNc3n[nH]c4cc(Cl)c(C(C)(C)C)cc34)n2CCCC)C1` [Example 87, N-(1-acryloylazetidin-3-yl)-1-butyl-2-(((5-(tert-butyl)-6-chloro-1H-indazol-3-yl)amino)methyl)-4-chloro-1H-imidazole-5-carboxamide], for which the “binding rate for G12C K-Ras4B (1-169)” value is “A (a binding rate of 80% or more is rated “A,”)”.
For the molecule `C=CC(=O)N1CC(NC(=O)c2cnc(CNc3n[nH]c4cc(Cl)c(C(C)(C)C)cc34)n2Cc2cc(OC)cc(OC)c2)C1` [Example 88, N-(1-acryloylazetidin-3-yl)-2-(((5-(tert-butyl)-6-chloro-1H-indazol-3-yl)amino)methyl)-1-(3,5-dimethoxybenzyl)-1H-imidazole-5-carboxamide], the “binding rate for G12C K-Ras4B (1-169)” value is “B (a binding rate of 60% or more and less than 80% is rated “B,”)”.
For the molecule `C=CC(=O)N1CC(NC(=O)c2c(Cl)nc(CNc3n[nH]c4cc(Cl)c(C(C)(C)C)cc34)n2CC(C)C)C1` [Example 89, N-(1-acryloylazetidin-3-yl)-2-(((5-(tert-butyl)-6-chloro-1H-indazol-3-yl)amino)methyl)-4-chloro-1-isobutyl-1H-imidazole-5-carboxamide], the “binding rate for G12C K-Ras4B (1-169)” value is reported as “A (a binding rate of 80% or more is rated “A,”)”.
As for `C=CC(=O)N1CC(NC(=O)c2c(Cl)nc(CNc3n[nH]c4cc(Cl)c(C(C)(C)C)cc34)n2CCOC)C1` [Example 90, N-(1-acryloylazetidin-3-yl)-2-(((5-(tert-butyl)-6-chloro-1H-indazol-3-yl)amino)methyl)-4-chloro-1-(2-methoxyethyl)-1H-imidazole-5-carboxamide], the entry is “A (a binding rate of 80% or more is rated “A,”)”; as for `C=CC(=O)N1CC(NC(=O)c2c(C(F)F)nc(CNc3n[nH]c4cc(Cl)c(C(C)(C)C)cc34)n2C2CCN(C)C2)C1` (stereo not shown) [Example 91, N-(1-acryloylazetidin-3-yl)-2-(((5-(tert-butyl)-6-chloro-1H-indazol-3-yl)amino)methyl)-4-(difluoromethyl)-1-(1-methylpyrrolidin-3-yl)-1H-imidazole-5-carboxamide], “A (a binding rate of 80% or more is rated “A,”)”.
As for `C=CC(=O)N1CC(NC(=O)c2c(C(F)F)nc(CNc3n[nH]c4cc(Cl)c(C(C)(C)C)cc34)n2C2CCN(CC)C2)C1` (stereo not shown) [Example 92, N-(1-acryloylazetidin-3-yl)-2-(((5-(tert-butyl)-6-chloro-1H-indazol-3-yl)amino)methyl)-4-(difluoromethyl)-1-(1-ethylpyrrolidin-3-yl)-1H-imidazole-5-carboxamide], the entry is “B (a binding rate of 60% or more and less than 80% is rated “B,”)”; as for `C=CC(=O)N1CC(NC(=O)c2c(Cl)nc(CNc3n[nH]c4cc(Cl)c(C(C)(C)C)cc34)n2-c2ccccn2)C1` [Example 94, N-(1-acryloylazetidin-3-yl)-2-(((5-(tert-butyl)-6-chloro-1H-indazol-3-yl)amino)methyl)-4-chloro-1-(pyridin-2-yl)-1H-imidazole-5-carboxamide], “B (a binding rate of 60% or more and less than 80% is rated “B,”)”.
Consider `C=CC(=O)N1CC(NC(=O)c2c(C(F)F)nc(CNc3n[nH]c4cc(Cl)c(C(C)(C)C)cc34)n2CC2CCCN2C(C)C)C1` (stereo not shown) [Example 95, N-(1-acryloylazetidin-3-yl)-2-(((5-(tert-butyl)-6-chloro-1H-indazol-3-yl)amino)methyl)-4-(difluoromethyl)-1-((1-isopropylpyrrolidine-2-yl)methyl)-1H-imidazole-5-carboxamide], for which the “binding rate for G12C K-Ras4B (1-169)” value is “A (a binding rate of 80% or more is rated “A,”)”.
`C=CC(=O)N1CC(NC(=O)c2c(C(F)F)nc(CNc3n[nH]c4cc(Cl)c(C(C)(C)C)cc34)n2C2CCN(C(C)=O)C2)C1` (stereo not shown) [Example 96, 1-(1-Acetylpyrrolidin-3-yl)-N-(1-acryloylazetidin-3-yl)-2-(((5-(tert-butyl)-6-chloro-1H-indazol-3-yl)amino)methyl)-4-(difluoromethyl)-1H-imidazole-5-carboxamide]: the “binding rate for G12C K-Ras4B (1-169)” value is given as “A (a binding rate of 80% or more is rated “A,”)”.
With `C=CC(=O)N1CC(NC(=O)c2c(Cl)nc(CNc3n[nH]c4cc(Cl)c(C(C)(C)C)cc34)n2C2CC=CC2)C1` [Example 98, N-(1-acryloylazetidin-3-yl)-2-(((5-(tert-butyl)-6-chloro-1H-indazol-3-yl)amino)methyl)-4-chloro-1-(cyclopent-3-en-1-yl)-1H-imidazole-5-carboxamide], the “binding rate for G12C K-Ras4B (1-169)” value was “A (a binding rate of 80% or more is rated “A,”)”.
Regarding `C=CC(=O)N1CC(NC(=O)c2c(Cl)nc(CNc3n[nH]c4cc(Cl)c(C(C)(C)C)cc34)n2[C@@H]2C[C@@H](O)[C@@H](O)C2)C1` [Example 99], the “binding rate for G12C K-Ras4B (1-169)” value was “A (a binding rate of 80% or more is rated “A,”)”.
For `C=CC(=O)N1CC(NC(=O)c2c(Cl)nc(CNc3n[nH]c4cc(Cl)c(C(C)(C)C)cc34)n2CC(F)F)C1` [Example 100, N-(1-acryloylazetidin-3-yl)-2-(((5-(tert-butyl)-6-chloro-1H-indazol-3-yl)amino)methyl)-4-chloro-1-(2,2-difluoroethyl)-1H-imidazole-5-carboxamide], the “binding rate for G12C K-Ras4B (1-169)” value is listed as “A (a binding rate of 80% or more is rated “A,”)”.
As for `C=CC(=O)N1CC(NC(=O)c2c(Cl)nc(CNc3n[nH]c4cc(Cl)c(C(C)(C)C)cc34)n2C2CN(C(C)=O)C2)C1` [Example 108, 1-(1-acetylazetidin-3-yl)-N-(1-acryloylazetidin-3-yl)-2-(((5-(tert-butyl)-6-chloro-1H-indazol-3-yl)amino)methyl)-4-chloro-1H-imidazole-5-carboxamide], the entry is “A (a binding rate of 80% or more is rated “A,”)”; as for `C=CC(=O)N1CC(NC(=O)c2c(Cl)nc(CNc3n[nH]c4cc(Cl)c(C(C)(C)C)cc34)n2C2CCCCC2)C1` [Example 109, N-(1-acryloylazetidin-3-yl)-2-(((5-(tert-butyl)-6-chloro-1H-indazol-3-yl)amino)methyl)-4-chloro-1-cyclohexyl-1H-imidazole-5-carboxamide], “B (a binding rate of 60% or more and less than 80% is rated “B,”)”; as for `C=CC(=O)N1CC(NC(=O)c2c(Cl)nc(CNc3n[nH]c4cc(Cl)c(C(C)(C)C)cc34)n2CC2CCCC2)C1` [Example 110, N-(1-acryloylazetidin-3-yl)-2-(((5-(tert-butyl)-6-chloro-1H-indazol-3-yl)amino)methyl)-4-chloro-1-(cyclopentylmethyl)-1H-imidazole-5-carboxamide], “A (a binding rate of 80% or more is rated “A,”)”.
